Entries after “also recorded” stand apart in the source; their conditions may differ. Peptide text beside a SMILES is read from it. * marks the point of attachment. Cbz = O=C(OCc1ccccc1)*
System: rice
Experiment: MG132 treatment of rice during high temperature treatment (blocking the 26S proteasome degradation pathway)
Type: in vivo, Oryza sativa
Details: under high temperature stress; MG132 0 μM, 50 μM, 100 μM; FIG. 6G, H

Structure (SMILES): CC(C)C[C@@H](C=O)NC(=O)[C@H](CC(C)C)NC(=O)[C@H](CC(C)C)NC(=O)OCc1ccccc1 [MG132] (Cbz-Leu-Leu-Leu-aldehyde)
- high temperature resistance of rice: high temperature sensitive phenotype; also recorded: can reduce the high temperature resistance of rice

Reference: patent US10647990B2, “Rice high temperature resistance gene and use in crop breeding resistance to high temperature thereof” (SHANGHAI INSTITUTES FOR BIOLOGICAL SCIENCES, CHINESE …, priority 2014, dated 2020)
